Assay: Measurement of oxidation induction time (OIT) by DSC
Settings: with liquid polyisoprene LIR-50, isothermal 180° C., O2 atmosphere 50 mL/min, DSC peak; measurement accuracy ±10 min
Protocol: The compound of formula III) was investigated under laboratory conditions for their potential protective effect as aging stabilizers by measurement of the oxidation induction time.
To this end the compounds of formula III) and 6-PPD in each case together with a polymer (liquid synthetic polyisoprene (IR), LIR-50, Kuraray, weight average molecular weight distribution MW=54 000 g/mol, glass transition temperature Tg=−63° C.) were heated at constant temperature (180° C.) until onset of oxidation (start temperature 35° C., heating to 170° C. at a heating rate of 20 K/min (kelvin per minute), heating to 180° C. at a heating rate of 1 K/min; purge gas: nitrogen (N2), volume flow 50 mL/min). The specimen was isothermally maintained for 5 minutes at 180° C. under an N2 atmosphere and the atmosphere was then switched to an O2 atmosphere (volume flow 50 mL/min).
Oxidation was determined via a peak using DSC (differential scanning calorimetry).
The time in minutes to oxidation was measured.

SMILES | Oxidation induction time (time to oxidation)
CC(C)CC(C)Nc1ccc(-c2cc3ccccc3[nH]2)cc1 (centres unmarked) | 121 ± 10 min
CC(C)CC(C)Nc1ccc(Nc2ccccc2)cc1 (centres unmarked) [Compound 6-PPD, N-(1,3-dimethylbutyl)-N′-phenyl-p-phenylenediamine] | 116 ± 10 min

From patent US20240336564A1, “COMPOUND, RUBBER MIXTURE CONTAINING THE COMPOUND, VEHICLE TIRE WHICH HAS AT LEAST ONE COMPONENT COMPRISING THE RUBBER MIXTURE, PROCESS FOR PREPARING THE COMPOUND, AND USE OF THE COMPOUND AS AN AGING PROTECTION AGENT AND/OR ANTIOZONANT AND/OR COLORANT” (CONTINENTAL REIFEN DEUTSCHLAND GMBH, priority 2021, published 2024)
